Results published in patent US20260216166A1, “COMPOUND FOR TREATMENT OF ERECTILE DYSFUNCTION” (Initiator Pharma A/S, priority 2023, published 2026).
“Also recorded” adds a separate entry of the source.

What was measured:
[1] = tested on: rat corpus cavernosum strips; test: Isometric tension of isolated rat corpus cavernosum strips; details: baseline tension, clozapine 10^-6 M, SCH23390, L-NOARG 10^-4 M, sildenafil 10^-7 M
Protocol: For functional studies in corpus cavernosum strips, the penis was removed by cutting the crura corpora cavernosa at the point of adhesion to the lower pubic bone, and the corpora cavernosa were then dissected free. The penis was submerged immediately in ice-cold (4° C.) PSS. The tunica albuginea was carefully opened from its proximal extremity of the corpus cavernosum towards the penile shaft and the erectile tissue within the corpus cavernosum was microsurgically dissected free. Change in isometric tension of corpus cavernosum strips (0.5×0.5×3 mm) were investigated in a tissue organ bath system (750TOBS, Danish Myotechnology, Aarhus, Denmark). Silk ligatures were applied at both ends of the strip preparations, which were then suspended between two L-formed metal prongs in thermostatically controlled organ baths (5 ml, 37° C.) containing PSS aerated with a mixture of 5% CO2 in air (pH 7.4). The bath fluid was routinely changed every 20 min and replaced with fresh PSS, also kept at 37° C. During an equilibration period of 60 min, tension was adjusted until a mean stable tension of 1.2 mN was obtained, as described earlier.
To test the contractility of the preparations, they were exposed to a potassium physiological saline solution (KPSS) of 125 mM and phenylephrine (10^-6 M), after each contraction acetylcholine was administrated to check endothelium-dependent relaxations.
To investigate the effect of IP2015 on corpus cavernosum strips, the drug (10 9-3×10^-4 M) was administered either in preparations at baseline tension or contracted with phenylephrine (10^-6 M) in the absence or presence of L-NOARG (10 4 M), a NO synthase inhibitor, sildenafil (10^-7 M), a PDE5 inhibitor, a dopamine D1 receptor antagonist, SCH23390, and a dopamine D2 receptor antagonist, clozapine (10^-6 M). The effect of vehicle was also investigated.

anaesthetized rats = test: Intracavernous pressure / spontaneous erections in anaesthetized rats; type: in vivo, rat; details: rats
Protocol: For in vivo erectile physiology studies, rats were anaesthetized with pentobarbital sodium (Sygehus Apoteket, Aarhus, Denmark; 50 mg/kg) given intraperitoneally. During the experiment, the rats breathed spontaneously; the body temperature was monitored continuously and was maintained at 37° C. With a midline incision in the perineum, the base of the penis, enclosed by striated muscles, was exposed. The ischiocavernous muscle covering the crus corpus cavernosum was divided on one side, and entrance to the underlying tunica albuginea was given. A 25-gauge needle attached to a heparinized (100 IE ml-1) polyethylene catheter was inserted into the crus corpus cavernosum to measure intracavernous pressure (ICP). A heparinized polyethylene catheter (PE 50) was introduced into the carotid artery to measure mean arterial pressure (MAP). Continuous direct measurements of MAP and ICP were performed with transducers (Disposable BP Transducer, ADInstruments, UK), and registered and analysed on a computerized data acquisition system (PowerLab, ADInstruments).
A stabilizing period of 20-30 min was allowed before registration of basal ICP and MAP. Through a lower abdominal incision, the cavernous nerve was isolated at the lateral aspect of the prostate, and electrical stimulation was performed with a slender bipolar platinum electrode, which was connected to a S48 stimulator (Grass Instrument Co., Boston, MA, U.S.A.). To measure the maximum amplitude of the erectile response, a first stimulation of the cavernous nerve (square wave pulses of 6 Volts, 10 Hz, 1 ms pulse duration for 30 s) was performed.
IP2015, sildenafil, clozapine or vehicle were administered by injection in the jugular vein in volumes of maximum 200 μl. […] The observation period of spontaneous erection after injection of IP2015 was 30 min. Clozapine (1 mg/kg) or sildenafil (1 mg/kg) were administered 30 or 10 min prior to 1 mg/kg IP2015 injection, respectively. One group was injected with vehicle alone.
To investigate the involvement of proximal neuronal pathways in the effect of IP2015, mechanical denervation was performed. For mechanical denervation the isolated cavernous nerve was cut distal to the major pelvic ganglion. Absence of erectile response to electrical stimulation verified the efficacy of mechanical denervation.

Structure (SMILES) | effect on IP2015 relaxation of corpus cavernosum strips [1] | effect on IP2015 relaxation of corpus cavernosum strips ([1]; listed as NG-nitro-L-arginine) | effect on magnitude of erectile responses induced by IP2015 (0.1 mg/kg) (anaesthetized rats; sildenafil 1 mg/kg) | effect on IP2015-induced erectile responses (anaesthetized rats; sildenafil 1 mg/kg 10 min or clozapine 1 mg/kg 30 min prior to IP2015 i.v.)
N=C(NCCC[C@H](N)C(=O)O)N[N+](=O)[O-] [L-NOARG, N^G-nitro-L-arginine, reference compound] | abolished the relaxant effect of IP2015 | blunted |  | 
CCCc1nn(C)c2c(=O)[nH]c(-c3cc(S(=O)(=O)N4CCN(C)CC4)ccc3OCC)nc12 [sildenafil, reference compound] | enhanced relaxation to IP2015 |  | an effect on the magnitude of erectile responses | markedly increased the duration of these responses; also recorded: further enhanced the IP2015 mediated increase in intracavernosal pressure
